Measurements as given in PMC10281575, “PfCRT mutations conferring piperaquine resistance in falciparum malaria shape the kinetics of quinoline drug binding and transport” (PLOS Pathogens, 2023).
Values joined by “and” are separate entries in the source; they are usually repeats but may differ in a detail not shown here. Equal entries are not always repeated.

Target: T1, PfCRT^Dd2 (Plasmodium falciparum, UniProt Q8IBZ9, A220S/I356T/K76T/M74I/N326S/N75E/Q271E/R371I)
T1 sequence (Q8IBZ9 1-424 M74I/N75E/K76T/A220S/Q271E/N326S/I356T/R371I): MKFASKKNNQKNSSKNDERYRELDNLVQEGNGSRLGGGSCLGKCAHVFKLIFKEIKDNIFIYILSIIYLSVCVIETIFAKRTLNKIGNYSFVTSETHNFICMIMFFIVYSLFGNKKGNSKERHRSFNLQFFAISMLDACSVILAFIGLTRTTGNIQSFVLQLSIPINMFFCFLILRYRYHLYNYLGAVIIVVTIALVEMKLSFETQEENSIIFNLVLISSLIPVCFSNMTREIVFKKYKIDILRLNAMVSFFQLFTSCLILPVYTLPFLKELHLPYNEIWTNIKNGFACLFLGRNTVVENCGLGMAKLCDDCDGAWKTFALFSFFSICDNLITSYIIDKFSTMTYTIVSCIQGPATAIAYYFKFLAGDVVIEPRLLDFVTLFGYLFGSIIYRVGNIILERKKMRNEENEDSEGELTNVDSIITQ
Assay: Radiolabeled drug uptake (transport assay) in Xenopus laevis oocytes expressing PfCRT^Dd2
Type: cell-based
Parameters: expressed in transfected cells; host or cells: Xenopus laevis oocytes injected with in vitro transcribed RNA (pSP64T)
Settings: for Vmax, maximal velocity of drug transport / Km: Michaelis-Menten fit, 10-500 μM drug; for Km: read-out: KM, Michaelis constant
Protocol: The two kinetic parameters were derived by fitting the Michaelis-Menten equation to the kinetic data (Table 1).
Adult female X. laevis frogs (purchased from NASCO) were anesthetized by submersion in a solution of 0.3% (w/v) 3-amino benzoate methanesulfonate for 15 min. Sections of the ovary were surgically removed and placed in Ca^2+-free ND96 buffer supplemented with 0.1% collagenase D (w/v; Roche), 0.5% BSA (w/v) and 9 mM Na2HPO4 at 18°C for 14–16 h while gently shaking. The oocytes were then washed several times with ND96 buffer (5 mM HEPES, pH 7.5, 96 mM NaCl, 2 mM KCl, 1.8 mM CaCl2, 1 mM MgCl2), supplemented with […] gentamycin. Healthy-looking stage V-VI oocytes were manually selected and randomly grouped for injection. A codon-optimized coding sequence of PfCRT was subcloned into the pSP64T expression vector and subsequently linearized using the restriction endonuclease BamHI or SalI (New England Biolabs GmbH). RNA for injection was transcribed in vitro using the mMESSAGE mMACHINE SP6 Transcription kit (Ambion), diluted with nuclease-free water to a final concentration of 0.6 μg/μL and stored at -80°C. RNA was injected using precision-bore glass capillary tubes (3.5-inch glass capillaries; Drummond Scientific Co.), which were pulled on a vertical puller (P-87 Flaming/Brown micropipette puller, Sutter Instrument Co.) and graduated. The micropipettes were connected to a microinjector (Nanoject II Auto-Nanoliter Injector, Drummond Scientific Co.). Injection was conducted under stereomicroscopic control. 50 nL of nuclease-free water alone (control oocytes) or 50 nL of nuclease-free water containing 30 ng of RNA was injected per oocyte. Injected oocytes were kept for 72 h at 18°C in ND96 buffer with two daily buffer changes before being used for further experiments.
Drug transport assays were performed as previously described. Briefly, measurements of radiolabeled drug uptake were made over 1 h, unless otherwise specified. […] Where specified, one or more unlabeled drugs were also present at the indicated concentrations. […] The uptake assays were terminated by removing the oocytes from the reaction medium and washing them three times with 2 mL of ice-cold ND96 buffer. Each oocyte was transferred to a separate scintillation vial and lysed by the addition of 200 μL of a 5% SDS solution. The radioactivity in the sample was measured using a liquid scintillation analyser Tri-Carb 4910 TR (PerkinElmer). Water-injected oocytes were analyzed in parallel as a negative control. The buffer from each condition was measured in duplicate in parallel to each experiment to transform counts per minute into pmol of drug. Drug uptake attributable to PfCRT was determined by subtracting the background uptake from water-injected oocytes from that of PfCRT-expressing oocytes. In all cases, at least three independent experiments were performed on oocytes from different frogs, and for each condition in an experiment, measurements were made from 10 oocytes per treatment.

[1] = 50 μM CQ, pH 6.0, total uptake, one value per biological replicate
[2] = 50 μM CQ, pH 6.0, water-injected uptake subtracted, per replicate
[3] = 60 min, pH 6, per biological replicate
[4] = 50 μM PPQ, pH 6.0, total uptake, one value per biological replicate
[5] = 50 μM PPQ, pH 6.0, water-injected uptake subtracted, per replicate

**Q.** Which results are given for `CCN(CC)CCCC(C)Nc1ccnc2cc(Cl)ccc12` (stereo not drawn) [CQ, chloroquine]?
**A.** PfCRTDd2-mediated CQ uptake at 10 µM CQ (10 µM CQ, single replicates): 0.97 pmol oocyte-1 h-1 and 1.33 pmol oocyte-1 h-1 and 1.00 pmol oocyte-1 h-1; PfCRTDd2 uptake of CQ at 10 min [1]: 5.12 pmol oocyte-1 and 4.60 pmol oocyte-1 and 2.93 pmol oocyte-1 and 4.96 pmol oocyte-1; PfCRTDd2 uptake of CQ at 30 min [1]: 6.73 pmol oocyte-1 and 14.34 pmol oocyte-1 and 5.71 pmol oocyte-1; PfCRTDd2 uptake of CQ at 60 min [1]: 19.28 pmol oocyte-1 and 12.33 pmol oocyte-1 and 10.23 pmol oocyte-1 and 14.77 pmol oocyte-1; PfCRTDd2 uptake of CQ at 90 min [1]: 15.72 pmol oocyte-1 and 19.85 pmol oocyte-1 and 18.63 pmol oocyte-1 and 19.17 pmol oocyte-1; PfCRTDd2 uptake of CQ at 120 min [1]: 20.73 pmol oocyte-1 and 30.99 pmol oocyte-1 and 21.07 pmol oocyte-1; PfCRTDd2 uptake of CQ at 180 min [1]: 26.87 pmol oocyte-1 and 30.32 pmol oocyte-1 and 26.73 pmol oocyte-1 and 25.67 pmol oocyte-1; PfCRTDd2-mediated CQ uptake at 10 min [2]: 1.03 pmol oocyte-1 and 0.90 pmol oocyte-1 and 1.98 pmol oocyte-1 and 0.91 pmol oocyte-1; PfCRTDd2-mediated CQ uptake at 30 min [2]: 1.52 pmol oocyte-1 and 5.01 pmol oocyte-1 and 4.35 pmol oocyte-1; PfCRTDd2-mediated CQ uptake at 60 min [2]: 4.91 pmol oocyte-1 and 4.76 pmol oocyte-1 and 7.49 pmol oocyte-1 and 5.04 pmol oocyte-1; PfCRTDd2-mediated CQ uptake at 120 min [2]: 9.09 pmol oocyte-1 and 10.40 pmol oocyte-1 and 9.67 pmol oocyte-1; PfCRTDd2-mediated CQ uptake at 180 min [2]: 13.62 pmol oocyte-1 and 9.61 pmol oocyte-1 and 9.37 pmol oocyte-1 and 10.85 pmol oocyte-1; PfCRTDd2-mediated CQ uptakeat 90 min [2]: 7.12 pmol oocyte-1 and 4.31 pmol oocyte-1 and 9.50 pmol oocyte-1 and 9.09 pmol oocyte-1; PfCRTDd2-mediated CQ uptake at 50 µM CQ (50 µM CQ, single replicates): 3.98 pmol oocyte-1 h-1 and 2.97 pmol oocyte-1 h-1 and 3.90 pmol oocyte-1 h-1 and 4.91 pmol oocyte-1 h-1 and 4.76 pmol oocyte-1 h-1 and 7.49 pmol oocyte-1 h-1 and 10.46 pmol oocyte-1 h-1 and 5.04 pmol oocyte-1 h-1; PfCRTDd2-mediated CQ uptake at 100 µM CQ (100 µM CQ, single replicates): 9.74 pmol oocyte-1 h-1 and 9.30 pmol oocyte-1 h-1 and 7.99 pmol oocyte-1 h-1; PfCRTDd2-mediated CQ uptake at 200 µM CQ (200 µM CQ, single replicates): 17.86 pmol oocyte-1 h-1 and 9.84 pmol oocyte-1 h-1 and 13.66 pmol oocyte-1 h-1 and 12.77 pmol oocyte-1 h-1; PfCRTDd2-mediated CQ uptake at 300 µM CQ (300 µM CQ, single replicates): 20.89 pmol oocyte-1 h-1 and 20.25 pmol oocyte-1 h-1 and 12.53 pmol oocyte-1 h-1; PfCRTDd2-mediated CQ uptake at 400 µM CQ (400 µM CQ, single replicates): 20.30 pmol oocyte-1 h-1 and 20.79 pmol oocyte-1 h-1 and 20.10 pmol oocyte-1 h-1; PfCRTDd2-mediated CQ uptake at 500 µM CQ (500 µM CQ, single replicates): 20.49 pmol oocyte-1 h-1 and 20.91 pmol oocyte-1 h-1 and 20.75 pmol oocyte-1 h-1 and 25.01 pmol oocyte-1 h-1; PfCRTDd2-mediated CQ uptake at 10 µM CQ [3]: 0.97 pmol oocyte-1 h-1 and 1.33 pmol oocyte-1 h-1 and 1.00 pmol oocyte-1 h-1; PfCRTDd2-mediated CQ uptake at 50 µM CQ [3]: 3.98 pmol oocyte-1 h-1 and 2.97 pmol oocyte-1 h-1 and 3.90 pmol oocyte-1 h-1 and 4.91 pmol oocyte-1 h-1 and 4.76 pmol oocyte-1 h-1 and 7.49 pmol oocyte-1 h-1 and 10.46 pmol oocyte-1 h-1 and 5.04 pmol oocyte-1 h-1; PfCRTDd2-mediated CQ uptake at 100 µM CQ [3]: 9.74 pmol oocyte-1 h-1 and 9.30 pmol oocyte-1 h-1 and 7.99 pmol oocyte-1 h-1; PfCRTDd2-mediated CQ uptake at 200 µM CQ [3]: 17.86 pmol oocyte-1 h-1 and 9.84 pmol oocyte-1 h-1 and 13.66 pmol oocyte-1 h-1 and 12.77 pmol oocyte-1 h-1; PfCRTDd2-mediated CQ uptake at 300 µM CQ [3]: 20.89 pmol oocyte-1 h-1 and 20.25 pmol oocyte-1 h-1 and 12.53 pmol oocyte-1 h-1; PfCRTDd2-mediated CQ uptake at 400 µM CQ [3]: 20.30 pmol oocyte-1 h-1 and 20.79 pmol oocyte-1 h-1 and 20.10 pmol oocyte-1 h-1; PfCRTDd2-mediated CQ uptake at 500 µM CQ [3]: 20.49 pmol oocyte-1 h-1 and 20.91 pmol oocyte-1 h-1 and 20.75 pmol oocyte-1 h-1 and 25.01 pmol oocyte-1 h-1; Vmax, maximal velocity of drug transport (60 min, pH 6): 33 ± 1 pmol oocyte^-1 h^-1; Km (60 min, pH 6): 260 ± 10 µM; PfCRTDd2-mediated CQ transport (S6 Fig, per biological replicate): 7.120 pmol oocyte-1 h-1 and 4.130 pmol oocyte-1 h-1 and 5.320 pmol oocyte-1 h-1

**Q.** Which results are given for `Clc1ccc2c(N3CCN(CCCN4CCN(c5ccnc6cc(Cl)ccc56)CC4)CC3)ccnc2c1` [PPQ, piperaquine]?
**A.** PfCRTDd2-mediated PPQ uptake at 10 µM PPQ (10 µM PPQ, single replicates): 7.56 pmol oocyte-1 h-1 and 10.37 pmol oocyte-1 h-1 and 9.52 pmol oocyte-1 h-1; PfCRTDd2 PPQ uptake at 10 min [4]: 37.95 pmol oocyte-1 and 17.31 pmol oocyte-1 and 66.26 pmol oocyte-1 and 58.58 pmol oocyte-1 and 53.50 pmol oocyte-1 and 34.40 pmol oocyte-1; PfCRTDd2 PPQ uptake at 30 min [4]: 69.53 pmol oocyte-1 and 108.95 pmol oocyte-1 and 50.26 pmol oocyte-1; PfCRTDd2 PPQ uptake at 60 min [4]: 123.14 pmol oocyte-1 and 94.65 pmol oocyte-1 and 103.77 pmol oocyte-1 and 219.78 pmol oocyte-1 and 140.45 pmol oocyte-1 and 145.26 pmol oocyte-1; PfCRTDd2 PPQ uptake at 90 min [4]: 183.05 pmol oocyte-1 and 183.06 pmol oocyte-1 and 147.41 pmol oocyte-1; PfCRTDd2 PPQ uptake at 120 min [4]: 118.72 pmol oocyte-1 and 197.79 pmol oocyte-1 and 316.81 pmol oocyte-1 and 143.54 pmol oocyte-1 and 477.33 pmol oocyte-1; PfCRTDd2 PPQ uptake at 180 min [4]: 167.85 pmol oocyte-1 and 274.70 pmol oocyte-1 and 265.00 pmol oocyte-1; PfCRTDd2-mediated PPQ uptake at 10 min [5]: 17.92 pmol oocyte-1 and 6.16 pmol oocyte-1 and 19.07 pmol oocyte-1 and 16.58 pmol oocyte-1 and 10.50 pmol oocyte-1 and 10.36 pmol oocyte-1; PfCRTDd2-mediated PPQ uptake at 30 min [5]: 29.61 pmol oocyte-1 and 27.31 pmol oocyte-1 and 14.01 pmol oocyte-1; PfCRTDd2-mediated PPQ uptake at 60 min [5]: 28.14 pmol oocyte-1 and 21.87 pmol oocyte-1 and 89.78 pmol oocyte-1 and 46.28 pmol oocyte-1 and 30.01 pmol oocyte-1 and 33.33 pmol oocyte-1; PfCRTDd2-mediated PPQ uptake at 90 min [5]: 41.43 pmol oocyte-1 and 74.11 pmol oocyte-1 and 31.93 pmol oocyte-1; PfCRTDd2-mediated PPQ uptake at 120 min [5]: 30.25 pmol oocyte-1 and 19.89 pmol oocyte-1 and 85.94 pmol oocyte-1 and 81.35 pmol oocyte-1 and 70.65 pmol oocyte-1; PfCRTDd2-mediated PPQ uptake at 180 min [5]: 32.52 pmol oocyte-1 and 76.65 pmol oocyte-1 and 72.50 pmol oocyte-1; PfCRTDd2-mediated PPQ uptake at 50 µM PPQ (50 µM PPQ, single replicates): 28.14 pmol oocyte-1 h-1 and 21.87 pmol oocyte-1 h-1 and 89.78 pmol oocyte-1 h-1 and 46.28 pmol oocyte-1 h-1 and 30.01 pmol oocyte-1 h-1 and 33.33 pmol oocyte-1 h-1 and 10.90 pmol oocyte-1 h-1; PfCRTDd2-mediated PPQ uptake at 100 µM PPQ (100 µM PPQ, single replicates): 59.97 pmol oocyte-1 h-1 and 45.22 pmol oocyte-1 h-1 and 64.52 pmol oocyte-1 h-1; PfCRTDd2-mediated PPQ uptake at 200 µM PPQ (200 µM PPQ, single replicates): 87.13 pmol oocyte-1 h-1 and 109.05 pmol oocyte-1 h-1 and 57.84 pmol oocyte-1 h-1; PfCRTDd2-mediated PPQ uptake at 300 µM PPQ (300 µM PPQ, single replicates): 90.42 pmol oocyte-1 h-1 and 110.91 pmol oocyte-1 h-1 and 77.44 pmol oocyte-1 h-1; PfCRTDd2-mediated PPQ uptake at 400 µM PPQ (400 µM PPQ, single replicates): 113.37 pmol oocyte-1 h-1 and 109.88 pmol oocyte-1 h-1 and 74.49 pmol oocyte-1 h-1; PfCRTDd2-mediated PPQ uptake at 500 µM PPQ (500 µM PPQ, single replicates): 118.94 pmol oocyte-1 h-1 and 82.44 pmol oocyte-1 h-1 and 112.35 pmol oocyte-1 h-1; PfCRTDd2-mediated PPQ uptake at 10 µM PPQ [3]: 7.56 pmol oocyte-1 h-1 and 10.37 pmol oocyte-1 h-1 and 9.52 pmol oocyte-1 h-1; PfCRTDd2-mediated PPQ uptake at 50 µM PPQ [3]: 33.33 pmol oocyte-1 h-1 and 10.9 pmol oocyte-1 h-1 and 28.14 pmol oocyte-1 h-1 and 21.87 pmol oocyte-1 h-1 and 89.78 pmol oocyte-1 h-1 and 46.28 pmol oocyte-1 h-1 and 30.01 pmol oocyte-1 h-1; PfCRTDd2-mediated PPQ uptake at 100 µM PPQ [3]: 59.97 pmol oocyte-1 h-1 and 45.22 pmol oocyte-1 h-1 and 64.52 pmol oocyte-1 h-1; PfCRTDd2-mediated PPQ uptake at 200 µM PPQ [3]: 87.13 pmol oocyte-1 h-1 and 109.05 pmol oocyte-1 h-1 and 57.84 pmol oocyte-1 h-1; PfCRTDd2-mediated PPQ uptake at 300 µM PPQ [3]: 90.42 pmol oocyte-1 h-1 and 110.91 pmol oocyte-1 h-1 and 77.44 pmol oocyte-1 h-1; PfCRTDd2-mediated PPQ uptake at 400 µM PPQ [3]: 113.37 pmol oocyte-1 h-1 and 109.88 pmol oocyte-1 h-1 and 74.49 pmol oocyte-1 h-1; PfCRTDd2-mediated PPQ uptake at 500 µM PPQ [3]: 118.94 pmol oocyte-1 h-1 and 82.44 pmol oocyte-1 h-1 and 112.35 pmol oocyte-1 h-1; Vmax, maximal velocity of drug transport (60 min, pH 6): 131 ± 3 pmol oocyte^-1 h^-1 and 259.88 pmol oocyte^-1 h^-1; Km (60 min, pH 6): 125 ± 9 µM
